According to ChEMBL document CHEMBL5034010, “Novel Cephalosporin Conjugates Display Potent and Selective Inhibition of Imipenemase-Type Metallo-β-Lactamases” (J Med Chem, 2021):
In brackets after ≈: the same amount, converted by molar mass. Activity calls are given as the source filed them. No cut-off for these calls is given here.

Tests used:
Escherichia coli [1] = test: Inhibition of Metallo-beta-lactamase VIM-2 in Escherichia coli clinical isolate assessed as fold reduction in meropenem MIC at 128 ug/ml; settings: dose 128.0 µg/ml
Escherichia coli [2] = test: Inhibition of Metallo-beta-lactamase NDM-1 in Escherichia coli clinical isolate assessed as fold reduction in meropenem MIC at 128 ug/ml; settings: dose 128.0 µg/ml
Escherichia coli [3] = test: Inhibition of Metallo-beta-lactamase NDM-1 in Escherichia coli clinical isolate assessed as fold reduction in meropenem MIC at 32 ug/ml; settings: dose 32.0 µg/ml
Enterobacter cloacae [4] = test: Inhibition of Metallo-beta-lactamase IMP-1 in Enterobacter cloacae clinical isolate assessed as fold reduction in meropenem MIC at 128 ug/ml; settings: dose 128.0 µg/ml
Escherichia coli [5] = test: Inhibition of Metallo-beta-lactamase NDM-1 in Escherichia coli clinical isolate assessed as MIC for meropenem antibacterial activity at 128 ug/ml (reference value: 32 ug/ml); settings: dose 128.0 µg/ml
Enterobacter cloacae [6] = test: Inhibition of Metallo-beta-lactamase IMP-1 in Enterobacter cloacae clinical isolate assessed as fold reduction in meropenem MIC at 32 ug/ml; settings: dose 32.0 µg/ml
Enterobacter cloacae [7] = test: Inhibition of Metallo-beta-lactamase IMP-1 in Enterobacter cloacae clinical isolate assessed as fold reduction in meropenem MIC at 64 ug/ml; settings: dose 64.0 µg/ml
Enterobacter cloacae [8] = test: Inhibition of Metallo-beta-lactamase IMP-1 in Enterobacter cloacae clinical isolate assessed as MIC for meropenem antibacterial activity at 64 ug/ml (reference value: 32 ug/ml); settings: dose 64.0 µg/ml
[9] = Inhibition of Escherichia coli beta-lactamase VIM-2 using nitrocefin chromogenic substrate measured after 15 to 60 min at 25 degC by microplate reader
Klebsiella pneumoniae [10] = test: Inhibition of Metallo-beta-lactamase IMP-28 in Klebsiella pneumoniae clinical isolate assessed as MIC for meropenem antibacterial activity at 64 ug/ml (reference value: 2 ug/ml); settings: dose 64.0 µg/ml
Escherichia coli [11] = test: Inhibition of Metallo-beta-lactamase NDM-1 in Escherichia coli clinical isolate assessed as fold reduction in meropenem MIC at 64 ug/ml; settings: dose 64.0 µg/ml
Escherichia coli [12] = test: Inhibition of Metallo-beta-lactamase VIM-2 in Escherichia coli clinical isolate assessed as MIC for meropenem antibacterial activity at 128 ug/ml (reference value: 4 ug/ml); settings: dose 128.0 µg/ml
Escherichia coli [13] = test: Inhibition of Metallo-beta-lactamase VIM-2 in Escherichia coli clinical isolate assessed as MIC for meropenem antibacterial activity at 32 ug/ml (reference value: 4 ug/ml); settings: dose 32.0 µg/ml
Enterobacter cloacae [14] = test: Inhibition of Metallo-beta-lactamase IMP-1 in Enterobacter cloacae clinical isolate assessed as MIC for meropenem antibacterial activity at 32 ug/ml (reference value: 32 ug/ml); settings: dose 32.0 µg/ml
Klebsiella pneumoniae [15] = test: Inhibition of Metallo-beta-lactamase IMP-28 in Klebsiella pneumoniae clinical isolate assessed as MIC for meropenem antibacterial activity at 128 ug/ml (reference value: 2 ug/ml); settings: dose 128.0 µg/ml
Escherichia coli [16] = test: Antibacterial activity against beta-lactamase VIM2 producing Escherichia coli clinical isolate measured upto 128 ug/ml; assay type: functional, organism-based
Escherichia coli [17] = test: Inhibition of Metallo-beta-lactamase NDM-1 in Escherichia coli clinical isolate assessed as MIC for meropenem antibacterial activity at 64 ug/ml (reference value: 32 ug/ml); settings: dose 64.0 µg/ml
Klebsiella pneumoniae [18] = test: Substrate activity at Klebsiella pneumoniae beta-lactamase IMP-28 assessed as compound hydrolysis by measuring Kcat by Michaelis-Menten analysis
Escherichia coli [19] = test: Inhibition of Metallo-beta-lactamase NDM-1 in Escherichia coli clinical isolate assessed as MIC for meropenem antibacterial activity at 32 ug/ml (reference value: 32 ug/ml); settings: dose 32.0 µg/ml
Klebsiella pneumoniae [20] = test: Inhibition of Metallo-beta-lactamase IMP-28 in Klebsiella pneumoniae clinical isolate assessed as fold reduction in meropenem MIC at 32 ug/ml; settings: dose 32.0 µg/ml
Escherichia coli [21] = test: Inhibition of Metallo-beta-lactamase VIM-2 in Escherichia coli clinical isolate assessed as fold reduction in meropenem MIC at 32 ug/ml; settings: dose 32.0 µg/ml
Klebsiella pneumoniae [22] = test: Substrate activity at Klebsiella pneumoniae beta-lactamase IMP-28 assessed as compound hydrolysis by measuring Km by Michaelis-Menten analysis
Klebsiella pneumoniae [23] = test: Substrate activity at Klebsiella pneumoniae beta-lactamase IMP-28 assessed as compound hydrolysis by measuring Kcat/Km by Michaelis-Menten analysis
Enterobacter cloacae [24] = test: Antibacterial activity against beta-lactamase IMP1 producing Enterobacter cloacae clinical isolate measured upto 128 ug/ml; assay type: functional, organism-based
[25] = Inhibition of Enterobacter cloacae IMP-1 using nitrocefin chromogenic substrate measured after 15 to 60 min at 25 degC by microplate reader
Klebsiella pneumoniae [26] = test: Inhibition of Metallo-beta-lactamase IMP-28 in Klebsiella pneumoniae clinical isolate assessed as fold reduction in meropenem MIC at 64 ug/ml; settings: dose 64.0 µg/ml
[27] = Inhibition of Klebsiella pneumoniae beta-lactamase IMP-28 using nitrocefin chromogenic substrate measured after 15 to 60 min at 25 degC by microplate reader
Klebsiella pneumoniae [28] = test: Inhibition of Metallo-beta-lactamase IMP-28 in Klebsiella pneumoniae clinical isolate assessed as MIC for meropenem antibacterial activity at 32 ug/ml (reference value: 2 ug/ml); settings: dose 32.0 µg/ml
Escherichia coli [29] = test: Inhibition of Metallo-beta-lactamase VIM-2 in Escherichia coli clinical isolate assessed as fold reduction in meropenem MIC at 64 ug/ml; settings: dose 64.0 µg/ml
Klebsiella pneumoniae [30] = test: Antibacterial activity against beta-lactamase IMP-28 producing Klebsiella pneumoniae clinical isolate measured upto 128 ug/ml; assay type: functional, organism-based
Escherichia coli [31] = test: Antibacterial activity against beta-lactamase NDM1 producing Escherichia coli clinical isolate measured upto 128 ug/ml; assay type: functional, organism-based
Escherichia coli [32] = test: Inhibition of Metallo-beta-lactamase VIM-2 in Escherichia coli clinical isolate assessed as MIC for meropenem antibacterial activity at 64 ug/ml (reference value: 4 ug/ml); settings: dose 64.0 µg/ml
Enterobacter cloacae [33] = test: Inhibition of Metallo-beta-lactamase IMP-1 in Enterobacter cloacae clinical isolate assessed as MIC for meropenem antibacterial activity at 128 ug/ml (reference value: 32 ug/ml); settings: dose 128.0 µg/ml
Klebsiella pneumoniae [34] = test: Inhibition of Metallo-beta-lactamase IMP-28 in Klebsiella pneumoniae clinical isolate assessed as fold reduction in meropenem MIC at 128 ug/ml; settings: dose 128.0 µg/ml
[35] = Inhibition of Escherichia coli beta-lactamase NDM-1 using nitrocefin chromogenic substrate measured after 15 to 60 min at 25 degC by microplate reader
Enterobacter cloacae [36] = test: Inhibition of Metallo-beta-lactamase IMP-1 in Enterobacter cloacae clinical isolate assessed as MIC for meropenem antibacterial activity at 32 ug/ml (Rvb =16 ug/ml); settings: dose 32.0 µg/ml
Enterobacter cloacae [37] = test: Inhibition of Metallo-beta-lactamase IMP-1 in Enterobacter cloacae clinical isolate assessed as MIC for meropenem antibacterial activity at 128 ug/ml (Rvb =16 ug/ml); settings: dose 128.0 µg/ml
Enterobacter cloacae [38] = test: Inhibition of Metallo-beta-lactamase IMP-1 in Enterobacter cloacae clinical isolate assessed as MIC for meropenem antibacterial activity at 64 ug/ml (Rvb =16 ug/ml); settings: dose 64.0 µg/ml

Row | Structure (SMILES) | fold change (FC) (Escherichia coli [1]) | fold change (FC) (Escherichia coli [2]) | fold change (FC) (Escherichia coli [3]) | fold change (FC) (Enterobacter cloacae [4]) | MIC (Escherichia coli [5]) | fold change (FC) (Enterobacter cloacae [6]) | fold change (FC) (Enterobacter cloacae [7]) | IC50 [9] | MIC (Klebsiella pneumoniae [10]) | fold change (FC) (Escherichia coli [11]) | MIC (Escherichia coli [12]) | MIC (Escherichia coli [13]) | MIC (Klebsiella pneumoniae [15]) | MIC (Escherichia coli [17]) | MIC (Escherichia coli [19]) | fold change (FC) (Klebsiella pneumoniae [20]) | fold change (FC) (Escherichia coli [21]) | fold change (FC) (Klebsiella pneumoniae [26]) | MIC (Klebsiella pneumoniae [28]) | fold change (FC) (Escherichia coli [29]) | further results
1 | O=C(Cc1ccccc1)N[C@@H]1C(=O)N2C(C(=O)O)=C(CSCc3ccccc3)CS[C@H]12 | 4 | 2 | 2 | 8 | 16 µg/mL (≈ 35.2 µM) | 4 | 4 | 73 µM | 0.25 µg/mL (≈ 0.55 µM) | 2 | 1 µg/mL (≈ 2.2 µM) | 2 µg/mL (≈ 4.4 µM) | 0.25 µg/mL (≈ 0.55 µM) | 16 µg/mL (≈ 35.2 µM) | 16 µg/mL (≈ 35.2 µM) | 4 | 2 | 8 | 0.5 µg/mL (≈ 1.1 µM) | 2 | MIC (Enterobacter cloacae [8]): 8 µg/mL (≈ 17.6 µM); MIC (Enterobacter cloacae [14]): 8 µg/mL (≈ 17.6 µM); Activity (Escherichia coli [16]): inactive; kcat (Klebsiella pneumoniae [18]): 10.8 s⁻¹; Km (Klebsiella pneumoniae [22]): 20.5 µM; kcat/Km (Klebsiella pneumoniae [23]): 529000 M⁻¹ s⁻¹; Activity (Enterobacter cloacae [24]): inactive; IC50 [25]: 43 µM; IC50 [27]: 45 µM; Activity (Klebsiella pneumoniae [30]): inactive; Activity (Escherichia coli [31]): inactive; MIC (Escherichia coli [32]): 2 µg/mL (≈ 4.4 µM); MIC (Enterobacter cloacae [33]): 4 µg/mL (≈ 8.8 µM); fold change (FC) (Klebsiella pneumoniae [34]): 8
2 | O=C(O)c1cccc(C(=O)O)n1 [DIPICOLINIC ACID] | > 64 | > 64 | 64 | 128 | < 0.5 µg/mL | 2 | 32 | 10 µM | < 0.031 µg/mL | 64 | < 0.063 µg/mL | < 0.063 µg/mL | < 0.031 µg/mL | 0.5 µg/mL (≈ 2.99 µM) | 0.5 µg/mL (≈ 2.99 µM) | 16 | > 64 | > 64 | 0.125 µg/mL (≈ 0.748 µM) | > 64 | MIC (Enterobacter cloacae [8]): 1 µg/mL (≈ 5.98 µM); IC50 [35]: 10 µM; MIC (Enterobacter cloacae [14]): 16 µg/mL (≈ 95.7 µM); MIC (Escherichia coli [32]): < 0.063 µg/mL; MIC (Enterobacter cloacae [33]): 0.25 µg/mL (≈ 1.5 µM); fold change (FC) (Klebsiella pneumoniae [34]): > 64
3 | CC1=C(C(=O)O)N2C(=O)[C@@H](NC(=O)Cc3ccccc3)[C@H]2SC1 | 4 | 2 | 2 | 1 | 16 µg/mL (≈ 48.1 µM) | 1 | 1 | 57 µM | 0.5 µg/mL (≈ 1.5 µM) | 2 | 1 µg/mL (≈ 3.01 µM) | 2 µg/mL (≈ 6.02 µM) | 0.25 µg/mL (≈ 0.752 µM) | 16 µg/mL (≈ 48.1 µM) | 16 µg/mL (≈ 48.1 µM) | 2 | 2 | 4 | 1 µg/mL (≈ 3.01 µM) | 2 | Activity (Escherichia coli [16]): inactive; kcat (Klebsiella pneumoniae [18]): 23.3 s⁻¹; MIC (Enterobacter cloacae [36]): 16 µg/mL (≈ 48.1 µM); Km (Klebsiella pneumoniae [22]): 392 µM; kcat/Km (Klebsiella pneumoniae [23]): 59000 M⁻¹ s⁻¹; Activity (Enterobacter cloacae [24]): inactive; IC50 [25]: > 100 µM; IC50 [27]: > 100 µM; Activity (Klebsiella pneumoniae [30]): inactive; Activity (Escherichia coli [31]): inactive; MIC (Escherichia coli [32]): 2 µg/mL (≈ 6.02 µM); MIC (Enterobacter cloacae [37]): 16 µg/mL (≈ 48.1 µM); MIC (Enterobacter cloacae [38]): 16 µg/mL (≈ 48.1 µM); fold change (FC) (Klebsiella pneumoniae [34]): 8
4 | O=C(O)CSCC1=C(C(=O)O)N2C(=O)[C@@H](NC(=O)Cc3ccccc3)[C@H]2SC1 | 4 | 4 | 2 | 4 | 8 µg/mL (≈ 18.9 µM) | 2 | 2 | 53 µM | 0.25 µg/mL (≈ 0.592 µM) | 2 | 1 µg/mL (≈ 2.37 µM) | 2 µg/mL (≈ 4.73 µM) | 0.125 µg/mL (≈ 0.296 µM) | 16 µg/mL (≈ 37.9 µM) | 16 µg/mL (≈ 37.9 µM) | 8 | 2 | 8 | 0.25 µg/mL (≈ 0.592 µM) | 2 | IC50 [35]: 72 µM; Activity (Escherichia coli [16]): inactive; kcat (Klebsiella pneumoniae [18]): 37 s⁻¹; MIC (Enterobacter cloacae [36]): 8 µg/mL (≈ 18.9 µM); Km (Klebsiella pneumoniae [22]): 219 µM; kcat/Km (Klebsiella pneumoniae [23]): 169000 M⁻¹ s⁻¹; Activity (Enterobacter cloacae [24]): inactive; IC50 [25]: > 100 µM; IC50 [27]: > 100 µM; Activity (Klebsiella pneumoniae [30]): inactive; Activity (Escherichia coli [31]): inactive; MIC (Escherichia coli [32]): 2 µg/mL (≈ 4.73 µM); MIC (Enterobacter cloacae [37]): 4 µg/mL (≈ 9.47 µM); MIC (Enterobacter cloacae [38]): 8 µg/mL (≈ 18.9 µM); fold change (FC) (Klebsiella pneumoniae [34]): 16
